From patent US20260138958A1, “SUBSTITUTED N-PHENYLURACILS AND SALTS THEREOF, AND USE THEREOF AS HERBICIDAL ACTIVE SUBSTANCES” (Bayer Aktiengesellschaft, priority 2022, published 2026)

How the values were obtained:
Format in all cases: in vivo
[1] = system: Triticum aestivum (TRZAS); test: Post-emergence crop plant compatibility, greenhouse pot test; details: Triticum aestivum, in vivo
Procedure, shortened: (§1)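 Visual % damage scores were taken roughly 3 weeks after treatment, relative to untreated plants, where 100% means plants died and 0% means no difference. Plants received aqueous sprays (WP or EC, 0.5% additive, 600 l/ha) on green parts at the one-leaf stage, 2–3 weeks after sowing.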

[2] = system: harmful plants; test: Post-emergence herbicidal action, summary statements over several weeds; details: 20 g or less per hectare, ALOMY, ECHCG, AVEFA, VERPE
Description: (§2) Seeds of monocotyledonous and dicotyledonous weeds and crop plants were placed in sandy loam in plastic or wood-fibre pots, covered with soil and cultivated in a greenhouse under controlled growth conditions. 2 to 3 weeks after sowing, the test plants were treated at the one-leaf stage. The compounds of the invention, formulated in the form of wettable powders (WP) or as emulsion concentrates (EC), were then sprayed onto the green parts of the plants as aqueous suspension or emulsion with addition of 0.5% additive at a water application rate of 600 l/ha (converted). After the test plants had been kept in the greenhouse under optimum growth conditions for about 3 weeks, the activity of the preparations was rated visually in comparison to untreated controls. For example, 100% activity=the plants have died, 0% activity=like control plants.

[3] = system: crop plants; test: Post-emergence crop plant compatibility, summary statements over several crops; details: 5 g or less per hectare, ORYSA, ZEAMX, TRZAS
Description: as §2
The observed effects on selected crop plants are reported here in comparison to the untreated controls (values in %).

[4] = system: Setaria viridis (SETVI); test: Post-emergence herbicidal action, greenhouse pot test; details: for pest or weed control at 5 g/ha / pest or weed control at 20 g/ha: Setaria viridis, 504 h; for pest or weed control at 5 g/ha: read-out: Post-emergence effect at 5 g/ha against SETVI in %; for pest or weed control at 20 g/ha: read-out: Post-emergence effect at 20 g/ha against SETVI in %
Procedure, shortened: (§3)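 Weeds grown in sandy loam under controlled greenhouse conditions were sprayed at the one-leaf stage, 2 to 3 weeks after sowing, with WP or EC formulations as aqueous suspension or emulsion plus 0.5% additive at 600 l/ha water. Damage was scored visually after about 3 weeks versus untreated controls (0% = like control, 100% = dead).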

[5] = system: Echinochloa crus-galli (ECHCG); test: as above; details: for pest or weed control at 20 g/ha: Echinochloa crus-galli, 504 h, read-out: Post-emergence effect at 20 g/ha against ECHCG in %
Procedure, shortened: as §3

[6] = system: Veronica persica (VERPE); test: as above; details: for pest or weed control at 5 g/ha / pest or weed control at 20 g/ha: Veronica persica, 504 h; for pest or weed control at 5 g/ha: read-out: Post-emergence effect at 5 g/ha against VERPE in %; for pest or weed control at 20 g/ha: read-out: Post-emergence effect at 20 g/ha against VERPE in %
Procedure, shortened: as §3

[7] = system: Viola tricolor (VIOTR); test: as above; details: for pest or weed control at 20 g/ha: Viola tricolor, 504 h, read-out: Post-emergence effect at 20 g/ha against VIOTR in %
Procedure, shortened: as §3

[8] = system: Bassia scoparia (KCHSC); test: as above
Procedure, shortened: as §3

[9] = system: Alopecurus myosuroides (ALOMY); test: as above; details: for pest or weed control at 20 g/ha: Alopecurus myosuroides, 504 h, read-out: Post-emergence effect at 20 g/ha against ALOMY in %
Procedure, shortened: as §3

[10] = system: Digitaria sanguinalis (DIGSA); test: as above
Procedure, shortened: as §3

[11] = system: Pharbitis purpurea (PHBPU); test: as above; details: for pest or weed control at 5 g/ha / pest or weed control at 20 g/ha: Ipomoea purpurea, 504 h; for pest or weed control at 5 g/ha: read-out: Post-emergence effect at 5 g/ha against PHBPU in %; for pest or weed control at 20 g/ha: read-out: Post-emergence effect at 20 g/ha against PHBPU in %
Procedure, shortened: as §3

[12] = system: Polygonum convolvulus (POLCO); test: as above; details: Fallopia convolvulus, 504 h; for pest or weed control at 5 g/ha: read-out: Post-emergence effect at 5 g/ha against POLCO in %; for pest or weed control at 20 g/ha: read-out: Post-emergence effect at 20 g/ha against POLCO in %
Procedure, shortened: as §3

[13] = system: Amaranthus retroflexus (AMARE); test: as above; details: Amaranthus retroflexus, 504 h; for pest or weed control at 1.25 g/ha: read-out: Post-emergence effect at 1.25 g/ha against AMARE in %; for pest or weed control at 5 g/ha: read-out: Post-emergence effect at 5 g/ha against AMARE in %; for pest or weed control at 20 g/ha: read-out: Post-emergence effect at 20 g/ha against AMARE in %
Procedure, shortened: as §3

[14] = system: Abutilon theophrasti (ABUTH); test: as above; details: for pest or weed control at 5 g/ha / pest or weed control at 20 g/ha: Abutilon theophrasti, 504 h; for pest or weed control at 5 g/ha: read-out: Post-emergence effect at 5 g/ha against ABUTH in %; for pest or weed control at 20 g/ha: read-out: Post-emergence effect at 20 g/ha against ABUTH in %
Procedure, shortened: as §3

[15] = system: Tripleurospermum inodorum (MATIN); test: as above; details: Tripleurospermum inodorum, 504 h, 20 g/ha, read-out: Post-emergence effect at 20 g/ha against MATIN in %
Procedure, shortened: as §3

[16] = system: Zea mays (ZEAMX); test: Post-emergence crop plant compatibility, greenhouse pot test; details: Zea mays, in vivo
Procedure, shortened: as §1

| Compound | Post-emergence effect at 1.25 g/ha against TRZAS in % [1] | herbicidal efficacy by comparison with a-27, a-29 or a generically encompassed structure (WO2002/098227) [2] | compatibility with crop plants by comparison with a-27, a-29 or a generically encompassed structure (WO2002/098227) [3] | Post-emergence effect at 1.25 g/ha against SETVI in % [4] | pest or weed control at 5 g/ha [4] | pest or weed control at 20 g/ha [4] | Post-emergence effect at 1.25 g/ha against ECHCG in % [5] | Post-emergence effect at 5 g/ha against ECHCG in % [5] | pest or weed control at 20 g/ha [5] | Post-emergence effect at 1.25 g/ha against VERPE in % [6] | pest or weed control at 5 g/ha [6] | pest or weed control at 20 g/ha [6] | Post-emergence effect at 1.25 g/ha against VIOTR in % [7] | Post-emergence effect at 5 g/ha against VIOTR in % [7] | pest or weed control at 20 g/ha [7] | Post-emergence effect at 1.25 g/ha against KCHSC in % [8] | Post-emergence effect at 5 g/ha against KCHSC in % [8] | Post-emergence effect at 20 g/ha against KCHSC in % [8] | pest or weed control at 20 g/ha [9] | Post-emergence effect at 5 g/ha against DIGSA in % [10] | further results |
| --- | --- | --- | --- | --- | --- | --- | --- | --- | --- | --- | --- | --- | --- | --- | --- | --- | --- | --- | --- | --- | --- |
| Cn1c(C(F)(F)F)cc(=O)n(-c2cc(Oc3ccccc3OCC(=O)OCC3CCCCC3)c(Cl)cc2F)c1=O [I.7-14] | 20% | distinctly improved herbicidal efficacy | distinctly improved compatibility | 100% | 100% | 100% | 90% | 100% | 100% | 100% | 100% | 100% | 100% | 100% | 100% | 100% | 100% | 100% | 100% | 100% | VERPE (efficacy in %) ([6]; Table B4 comparison, application rate 1.25 g/ha): 100%; Post-emergence effect at 20 g/ha against DIGSA in % [10]: 100%; Post-emergence effect at 1.25 g/ha against PHBPU in % [11]: 100%; pest or weed control at 5 g/ha [11]: 100%; pest or weed control at 20 g/ha [11]: 100%; pest or weed control at 5 g/ha [12]: 100%; pest or weed control at 20 g/ha [12]: 100%; pest or weed control at 1.25 g/ha [13]: 100%; pest or weed control at 5 g/ha [13]: 100%; pest or weed control at 20 g/ha [13]: 100%; Post-emergence effect at 1.25 g/ha against ABUTH in % [14]: 100%; pest or weed control at 5 g/ha [14]: 100%; pest or weed control at 20 g/ha [14]: 100%; pest or weed control at 20 g/ha [15]: 90% |
| Cn1c(C(F)(F)F)cc(=O)n(-c2cc(Oc3ccccc3OCC(=O)OCC3CCCCCC3)c(Cl)cc2F)c1=O [I.7-16] | 10% | distinctly improved herbicidal efficacy | distinctly improved compatibility | 100% | 100% | 100% | 100% | 100% | 100% | 80% | 100% | 100% | 100% | 100% | 100% | 100% | 100% | 100% | 100% | 100% | Post-emergence effect at 1.25 g/ha against ZEAMX in % [16]: 20%; Post-emergence effect at 20 g/ha against TRZAS in % [1]: 20%; ECHCG (efficacy in %) ([5]; Table B5 comparison, application rate 1.25 g/ha): 100%; Post-emergence effect at 5 g/ha against ALOMY in % ([9]; 5 g/ha): 90%; Post-emergence effect at 1.25 g/ha against DIGSA in % ([10]; 1.25 g/ha): 90%; Post-emergence effect at 20 g/ha against DIGSA in % [10]: 100%; Post-emergence effect at 1.25 g/ha against PHBPU in % [11]: 80%; pest or weed control at 5 g/ha [11]: 100%; pest or weed control at 20 g/ha [11]: 100%; pest or weed control at 5 g/ha [12]: 100%; pest or weed control at 20 g/ha [12]: 100%; pest or weed control at 1.25 g/ha [13]: 100%; pest or weed control at 5 g/ha [13]: 100%; pest or weed control at 20 g/ha [13]: 100%; Post-emergence effect at 1.25 g/ha against ABUTH in % [14]: 80%; pest or weed control at 5 g/ha [14]: 100%; pest or weed control at 20 g/ha [14]: 100%; pest or weed control at 20 g/ha [15]: 90% |
